Source: patent US20250236608A1, “EGFR INHIBITORS” (Blueprint Medicines Corporation, priority 2022, published 2025)

Experiments:
[1] = molecular target: pEGFR (Tyr1068) in PC-9 cells (Ex19Del) (Homo sapiens (Human), UniProt P00533, DEL746-750); test: PC-9 pEGFR AlphaLISA assay; assay type: cell-based; conditions: 4 hours incubation, p-EGFR (Tyr1068) AlphaLISA, read-out: Ext pEGFR_PC-9 Ex19Del IC50
Method: PC-9/A431 pEGFR AlphaLISA Assays
Inhibitory effects of compounds were evaluated in cellular assays that measure level of intracellular phosphorylation of EGFR in PC-9 (ECACC, #90071810, Milipore/Sigma) and A431 cell lines (ATCC, CRL-1555) using AlphaLISA sureFire ultra p-EGFR (Tyr1068) assay kit (PerkinElmer, ALSU-PEGFR-A50K). PC-9 cells were seeded at 3.125×10^5 cells/ml in 40 μL phenol-free DMEM supplemented with 10% FBS per well of a 384 well plate (Corning, 3764), while A431 were seeded at 3.125×10^5 cells/ml in 40 μL in phenol-free DMEM with 0.5% FBS. Cells were allowed to adhere overnight at 37° C./5% CO2. On the next day, compounds were transferred at 4-fold, 10-point serial dilution from compound source plate to cell plates using liquid handler Echo550 and were incubated at 37° C./5% CO2 for 4 hours. A431 cells were stimulated prior harvesting for 10 min with EGF at final concentration of 30 ng/ml in the incubator. Medium was removed from the plates and cells were lysed with 10 μL of 1× AlphaLISA lysis buffer (supplemented with 1× protease/phosphatase inhibitor cocktail) followed by shaking at 600 rpm for 30 minutes at room temperature. Lysates were transferred to Optiplate (Apricot designs) and 5 μl of 1× acceptor bead mix (prepared just before use) was added to each well followed by incubation at room temperature for 1.5-2 h in dark. Then 5 μL of freshly-made donor bead mix is added to each well under subdued lighting or green filters, was mixed well on the shaker and the plate was sealed and left for an overnight incubation at room temperature in dark. On the next day, the plate was read the Envision using standard AlphaLisa settings. Percent of pEGFR inhibition was plotted against log concentration of compounds to generate IC50 values.

EGFR L858R = EGFR L858R (Homo sapiens (Human), UniProt P00533, L858R); test: Biochemical EGFR inhibition assay, EGFR L858R; conditions: Caliper mobility shift; 1.0 mM ATP or ATP Km; read-out: Enz EGFR_L858R IC50
Method: (§1) Reactions proceeded until between 10% to 20% total peptides were phosphorylated at room temperature (25° C.) and were terminated with 35 mM 2,2′,2″,2″-(ethane-1,2-diyldinitrilo)tetraacetic acid (EDTA). Product was detected using the Caliper mobility shift detection method where the phosphorylated peptide (product) and substrate were electrophoretically separated and measured. Percent activity was plotted against log concentration of compound and points to generate an apparent IC50.

EGFR (d746-750) = EGFR (d746-750) (Homo sapiens (Human), UniProt P00533, DEL746-750); test: Biochemical EGFR inhibition assay, EGFR (d746-750); conditions: Caliper mobility shift; 1.0 mM ATP or ATP Km; read-out: Enz EGFR_Exon19-del746-750 IC50
Method: as §1

Sequence of pEGFR (Tyr1068) in PC-9 cells (Ex19Del) (P00533 other isoform, or with tags, fused parts or gaps del 746-750): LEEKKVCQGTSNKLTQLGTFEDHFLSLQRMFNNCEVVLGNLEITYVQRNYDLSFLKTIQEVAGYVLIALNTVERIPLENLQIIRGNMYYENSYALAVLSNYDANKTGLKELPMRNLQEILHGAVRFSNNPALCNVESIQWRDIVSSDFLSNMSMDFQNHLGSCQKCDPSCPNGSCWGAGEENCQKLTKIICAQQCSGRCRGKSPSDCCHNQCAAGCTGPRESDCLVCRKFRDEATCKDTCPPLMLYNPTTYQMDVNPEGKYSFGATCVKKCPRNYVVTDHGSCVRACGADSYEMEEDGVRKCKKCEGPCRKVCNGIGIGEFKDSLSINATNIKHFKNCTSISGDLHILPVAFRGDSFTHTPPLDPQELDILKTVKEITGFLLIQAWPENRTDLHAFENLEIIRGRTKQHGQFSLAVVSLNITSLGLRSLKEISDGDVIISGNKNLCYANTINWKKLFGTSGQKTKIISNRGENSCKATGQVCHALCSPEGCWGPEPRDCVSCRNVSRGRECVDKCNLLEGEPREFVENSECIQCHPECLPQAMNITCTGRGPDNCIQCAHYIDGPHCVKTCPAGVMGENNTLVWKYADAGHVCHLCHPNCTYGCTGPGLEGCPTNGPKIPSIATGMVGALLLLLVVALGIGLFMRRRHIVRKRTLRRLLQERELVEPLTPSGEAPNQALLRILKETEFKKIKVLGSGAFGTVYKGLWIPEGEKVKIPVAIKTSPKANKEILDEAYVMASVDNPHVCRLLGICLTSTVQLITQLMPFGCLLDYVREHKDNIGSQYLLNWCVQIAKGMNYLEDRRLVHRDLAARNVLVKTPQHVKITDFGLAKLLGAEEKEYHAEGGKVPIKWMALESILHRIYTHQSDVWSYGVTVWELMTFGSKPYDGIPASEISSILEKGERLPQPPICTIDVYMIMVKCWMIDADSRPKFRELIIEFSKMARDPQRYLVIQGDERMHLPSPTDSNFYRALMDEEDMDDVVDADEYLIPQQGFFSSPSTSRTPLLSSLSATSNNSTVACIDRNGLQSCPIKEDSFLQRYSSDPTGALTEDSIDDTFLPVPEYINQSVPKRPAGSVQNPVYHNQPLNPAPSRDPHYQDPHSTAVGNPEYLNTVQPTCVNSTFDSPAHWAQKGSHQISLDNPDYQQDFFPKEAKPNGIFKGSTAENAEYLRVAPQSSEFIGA
Sequence of EGFR L858R (P00533 25-1210 L858R): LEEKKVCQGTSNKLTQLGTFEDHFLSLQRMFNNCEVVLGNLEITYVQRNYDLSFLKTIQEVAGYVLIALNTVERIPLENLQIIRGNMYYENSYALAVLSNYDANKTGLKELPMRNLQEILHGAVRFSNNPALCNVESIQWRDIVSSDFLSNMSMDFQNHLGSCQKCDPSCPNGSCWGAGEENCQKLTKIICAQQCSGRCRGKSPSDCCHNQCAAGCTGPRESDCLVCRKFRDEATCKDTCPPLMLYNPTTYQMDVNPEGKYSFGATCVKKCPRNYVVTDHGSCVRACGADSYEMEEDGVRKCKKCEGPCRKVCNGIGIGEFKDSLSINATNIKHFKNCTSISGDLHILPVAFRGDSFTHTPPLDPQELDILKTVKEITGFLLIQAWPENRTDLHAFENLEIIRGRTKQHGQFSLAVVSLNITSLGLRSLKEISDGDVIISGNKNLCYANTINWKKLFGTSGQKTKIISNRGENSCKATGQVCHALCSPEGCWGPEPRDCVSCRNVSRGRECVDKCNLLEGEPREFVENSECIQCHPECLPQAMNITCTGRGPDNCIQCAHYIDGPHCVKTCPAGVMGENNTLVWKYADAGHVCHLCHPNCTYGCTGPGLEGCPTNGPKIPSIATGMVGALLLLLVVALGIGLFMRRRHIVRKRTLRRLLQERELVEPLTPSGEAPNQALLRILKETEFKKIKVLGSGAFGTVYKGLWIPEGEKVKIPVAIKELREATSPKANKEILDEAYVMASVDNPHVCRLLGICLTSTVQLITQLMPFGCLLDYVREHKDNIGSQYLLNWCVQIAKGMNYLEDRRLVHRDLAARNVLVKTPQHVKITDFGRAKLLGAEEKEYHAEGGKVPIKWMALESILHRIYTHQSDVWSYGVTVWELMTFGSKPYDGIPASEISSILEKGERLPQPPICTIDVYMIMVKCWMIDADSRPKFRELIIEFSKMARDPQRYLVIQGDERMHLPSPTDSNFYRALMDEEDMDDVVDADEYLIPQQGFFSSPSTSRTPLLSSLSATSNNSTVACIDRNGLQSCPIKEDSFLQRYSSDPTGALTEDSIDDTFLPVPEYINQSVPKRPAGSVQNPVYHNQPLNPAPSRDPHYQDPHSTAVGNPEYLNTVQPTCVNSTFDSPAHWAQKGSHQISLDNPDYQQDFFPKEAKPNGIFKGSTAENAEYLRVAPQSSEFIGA
Sequence of EGFR (d746-750) (P00533 other isoform, or with tags, fused parts or gaps del 1-694/del 746-750 limits assumed): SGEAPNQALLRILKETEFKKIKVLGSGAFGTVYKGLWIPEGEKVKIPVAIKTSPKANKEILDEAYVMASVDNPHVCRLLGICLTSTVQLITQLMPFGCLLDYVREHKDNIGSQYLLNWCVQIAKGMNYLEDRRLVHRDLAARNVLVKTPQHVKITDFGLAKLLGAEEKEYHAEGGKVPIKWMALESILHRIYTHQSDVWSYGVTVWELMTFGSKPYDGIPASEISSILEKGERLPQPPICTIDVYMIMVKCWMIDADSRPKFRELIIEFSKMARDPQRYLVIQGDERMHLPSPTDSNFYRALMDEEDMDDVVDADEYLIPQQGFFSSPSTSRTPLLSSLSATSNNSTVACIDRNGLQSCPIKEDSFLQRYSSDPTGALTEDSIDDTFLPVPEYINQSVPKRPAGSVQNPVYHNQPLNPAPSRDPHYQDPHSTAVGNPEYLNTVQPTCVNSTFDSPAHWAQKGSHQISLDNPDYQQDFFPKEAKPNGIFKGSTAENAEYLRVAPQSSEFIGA

Row | Compound | IC50 [1] [nM] | IC50 (EGFR L858R) [nM] | IC50 (EGFR (d746-750)) [nM]
1 | COc1cc2ncnc(-c3cn(C)nc3-c3ccccc3)c2cc1OC(=O)N1CCN(C)C[C@H]1C (single isomer, unassigned) [Example 58, 7-methoxy-4-(1-methyl-3-phenyl-1H-pyrazol-4-yl)quinazolin-6-yl (R)-2,4-dimethylpiperazine-1-carboxylate or 7-methoxy-4-(1-methyl-3-phenyl-1H-pyrazol-4-yl)quinazolin-6-yl(S)-2,4-dimethylpiperazine-1-carboxylate] | 5.1 | 4.5 | 2.5
2 | CCn1ccc(C(=O)Nc2cc3c(-c4cn(C)nc4-c4ccccc4)ncnc3cc2OC)n1 [Example 202, 1-ethyl-N-(7-methoxy-4-(1-methyl-3-phenyl-1H-pyrazol-4-yl)quinazolin-6-yl)-1H-pyrazole-3-carboxamide] | 0.6 | 0.9 | 0.6
3 | COc1cc2ncnc(-c3cn(C)nc3-c3ccccc3)c2nc1O[C@@H](C)c1cocn1 [Example 39, (S)-4-(1-((7-methoxy-4-(1-methyl-3-phenyl-1H-pyrazol-4-yl)pyrido[3,2-d]pyrimidin-6-yl)oxy)ethyl) oxazole] | 5.3 | 3.5 | 2.1
4 | COc1cc2ncnc(-c3cn(C)nc3-c3ccccc3)c2cc1OC(=O)N1[C@@H](C)CNC[C@@H]1C [Example 88, 7-methoxy-4-(1-methyl-3-phenyl-1H-pyrazol-4-yl)quinazolin-6-yl (2S,6S)-2,6-dimethylpiperazine-1-carboxylate] | 7.5 | 3.2 | 1.9
5 | CCOc1cc2ncnc(-c3cn(C)nc3-c3ccccc3)c2cc1NC(=O)[C@@]12COC[C@@H]1C2 [Example 290, (1R,5R)—N-(7-ethoxy-4-(1-methyl-3-phenyl-1H-pyrazol-4-yl)quinazolin-6-yl)-3-oxabicyclo[3.1.0]hexane-1-carboxamide] | 1.5 | 1.3 | 0.9
6 | COc1cc2ncnc(-c3cn(C)nc3-c3ccccc3)c2cc1NC(=O)c1cccnc1 [Example 325, N-(7-methoxy-4-(1-methyl-3-phenyl-1H-pyrazol-4-yl)quinazolin-6-yl)nicotinamide] | 2 | 1.7 | 1
7 | COc1cc2ncnc(-c3cn(C)nc3-c3ccc(F)cc3)c2nc1NC(=O)[C@]12CN(C)C[C@H]1C2(F)F (single isomer, unassigned) [Example 425, (1R,5S)-6,6-difluoro-N-(4-(3-(4-fluorophenyl)-1-methyl-1H-pyrazol-4-yl)-7-methoxypyrido[3,2-d]pyrimidin-6-yl)-3-methyl-3-azabicyclo[3.1.0]hexane-1-carboxamide or (1S,5R)-6,6-difluoro-N-(4-(3-(4-fluorophenyl)-1-methyl-1H-pyrazol-4-yl)-7-methoxypyrido[3,2-d]pyrimidin-6-yl)-3-methyl-3-azabicyclo[3.1.0]hexane-1-carboxamide] | 0.8 | 2.8 | 1
8 | CCOc1cc2ncnc(-c3cn(C)nc3-c3ccccc3)c2cc1NC(=O)[C@]12COC[C@H]1C2 [Example 291, (1S,5S)—N-(7-ethoxy-4-(1-methyl-3-phenyl-1H-pyrazol-4-yl)quinazolin-6-yl)-3-oxabicyclo[3.1.0]hexane-1-carboxamide] | 1.7 | 1.6 | 1
9 | CCOc1cc2ncnc(-c3cn(C)nc3-c3ccc(F)cc3)c2nc1NC(=O)[C@]12C[C@H]1CN(C)C2 (single isomer, unassigned) [Example 376, (1R,5R)—N-(7-ethoxy-4-(3-(4-fluorophenyl)-1-methyl-1H-pyrazol-4-yl)pyrido[3,2-d]pyrimidin-6-yl)-3-methyl-3-azabicyclo[3.1.0]hexane-1-carboxamide or (1S,5S)—N-(7-ethoxy-4-(3-(4-fluorophenyl)-1-methyl-1H-pyrazol-4-yl)pyrido[3,2-d]pyrimidin-6-yl)-3-methyl-3-azabicyclo[3.1.0]hexane-1-carboxamide] | 2.7 | 1.3 | 0.4
10 | COc1cc2ncnc(-c3cn(C)nc3-c3ccc(F)cc3)c2nc1NC(=O)[C@]12COC[C@H]1C2 (single isomer, unassigned) [Example 381, (1S,5S)—N-(4-(3-(4-fluorophenyl)-1-methyl-1H-pyrazol-4-yl)-7-methoxypyrido[3,2-d]pyrimidin-6-yl)-3-oxabicyclo[3.1.0]hexane-1-carboxamide or (1R,5R)—N-(4-(3-(4-fluorophenyl)-1-methyl-1H-pyrazol-4-yl)-7-methoxypyrido[3,2-d]pyrimidin-6-yl)-3-oxabicyclo[3.1.0]hexane-1-carboxamide] | 1.4 | 1.9 | 0.7
11 | COc1cc2ncnc(-c3cn(C)nc3-c3ccccc3)c2cc1NC(=O)C1(C)COC1 [Example 345, N-(7-methoxy-4-(1-methyl-3-phenyl-1H-pyrazol-4-yl)quinazolin-6-yl)-3-methyloxetane-3-carboxamide] | 7.8 | 4.7 | 1.9
12 | Cn1cc(-c2ccc3c(-c4c[nH]nc4-c4ccccc4)ncnc3c2)cn1 [Example 441, 7-(1-methyl-1H-pyrazol-4-yl)-4-(3-phenyl-1H-pyrazol-4-yl)quinazoline] | 0.4 | 1.1 | 0.7

Next, values leading:

Row | IC50 [1] [nM] | IC50 (EGFR L858R) [nM] | IC50 (EGFR (d746-750)) [nM] | Compound
13 | 1.5 | 4.2 | 2.9 | COc1cc2ncnc(-c3cn(C)nc3-c3ccccc3)c2nc1O[C@H](C)c1cocn1 [Example 40, (R)-4-(1-((7-methoxy-4-(1-methyl-3-phenyl-1H-pyrazol-4-yl)pyrido[3,2-d]pyrimidin-6-yl)oxy)ethyl) oxazole]
14 | 1 | 0.4 | 0.2 | COc1cc2ncnc(-c3cn(C)nc3-c3ccc(F)cc3)c2cc1NC(=O)C1CC(F)(F)C1 [Example 212, 3,3-difluoro-N-(4-(3-(4-fluorophenyl)-1-methyl-1H-pyrazol-4-yl)-7-methoxyquinazolin-6-yl)cyclobutane-1-carboxamide]
15 | 1.2 | 1.6 | 0.9 | COCC1(C(=O)Nc2cc3c(-c4cn(C)nc4-c4ccccc4)ncnc3cc2OC)CCC1 [Example 214, N-(7-methoxy-4-(1-methyl-3-phenyl-1H-pyrazol-4-yl)quinazolin-6-yl)-1-(methoxymethyl)cyclobutane-1-carboxamide]
16 | 3.6 | 5.6 | 2 | COc1cc2ncnc(-c3cn(C)nc3-c3ccc(Cl)cc3)c2nc1NC(=O)C12CC(N(C)C)(C1)C2 [Example 474, N-{4-[3-(4-chlorophenyl)-1-methyl-1H-pyrazol-4-yl]-7-methoxypyrido[3,2-d]pyrimidin-6-yl}-3-(dimethylamino) bicyclo[1.1.1]pentane-1-carboxamide]
17 | 1.5 | 2 | 0.9 | COc1cc2ncnc(-c3cn(C)nc3-c3ccccc3F)c2nc1NC(=O)[C@@]12COC[C@@H]1C2 (single isomer, unassigned) [Example 387, (1R,5R)—N-(4-(3-(2-fluorophenyl)-1-methyl-1H-pyrazol-4-yl)-7-methoxypyrido[3,2-d]pyrimidin-6-yl)-3-oxabicyclo[3.1.0]hexane-1-carboxamide or (1S,5S)—N-(4-(3-(2-fluorophenyl)-1-methyl-1H-pyrazol-4-yl)-7-methoxypyrido[3,2-d]pyrimidin-6-yl)-3-oxabicyclo[3.1.0]hexane-1-carboxamide]
18 | 1.6 | 1.1 | 0.7 | COc1cc2ncnc(-c3cn(C)nc3-c3ccccc3)c2cc1NC(=O)c1ncccn1 [Example 192, N-(7-methoxy-4-(1-methyl-3-phenyl-1H-pyrazol-4-yl)quinazolin-6-yl)pyrimidine-2-carboxamide]
19 | 2.1 | 2.6 | 1.4 | COc1cc2ncnc(-c3cn(C)nc3-c3ccccc3)c2nc1O[C@@H](C)c1cccnc1F [Example 47, (S)-6-(1-(2-fluoropyridin-3-yl)ethoxy)-7-methoxy-4-(1-methyl-3-phenyl-1H-pyrazol-4-yl)pyrido[3,2-d]pyrimidine]
